Reference: patent US20020137929A1, “1 - (3-heterocyclylphenyl) isothiourea, -isourea, -guanidine and -amidine herbicidal agents” (Intellectual Property Department, BASF Aktiengesellschaft, priority 1998, published 2002)

Legend:
[1] = system: IPOHE (Morningglory, Ivyleaf); assay: Preemergence herbicidal evaluation; type: in vivo, Ipomoea hederacea; details: rated 4-5 weeks after treatment
Text: (§1) Results of herbicide evaluation are expressed on a rating scale (0-9). The scale is based upon a visual observation of plant stand, vigor, malformation, size, chlorosis and overall plant appearance as compared with a control.
(§2) The preemergence herbicidal activity of the test compounds of the present invention is exemplified by the following tests in which the seeds of a variety of monocotyledonous and dicotyledonous plants are separately mixed with potting soil and planted on top of approximately one inch of soil in separate pint cups. After planting, the cups are sprayed with the selected aqueous acetone solution containing test compound in sufficient quantity to provide the equivalent of about 0.0156 to 0.500 kg per hectare of test compound per cup. The treated cups are then placed on greenhouse benches, watered and cared for in accordance with conventional greenhouse procedures. From four to five weeks after treatment, the tests are terminated and each cup is examined and rated according to the rating system provided in Example 37.
(§3) The compounds evaluated are reported by compound number given in Example 37.

ABUTH (Velvetleaf) = assay: Postemergence herbicidal evaluation; type: in vivo, Abutilon theophrasti; details: postemergence
Method: (§4) In the tests, seedling plants are grown in jiffy flats for about two weeks. The test compounds are dispersed in 50/50 acetone/water mixtures containing 0.5% TWEEN®20, a polyoxyethylene sorbitan monolaurate surfactant of Atlas Chemical Industries, in sufficient quantities to provide the equivalent of about 0.0156 kg to 0.500 kg per hectare of active compound when applied to the plants through a spray nozzle operating at 40 psi for a predetermined time. After spraying, the plants are placed on greenhouse benches and are cared for in accordance with conventional greenhouse procedures. From four to five weeks after treatment, the seedling plants are examined and rated according to the rating system set forth below. Where more than one test is involved for a given compound, the data are averaged.
(§5) Plant species employed in these evaluations are reported by header abbreviation, common name and scientific name.
as §1

[2] = system: GLXMAW (Soybean, Williams); assay: Postemergence herbicidal evaluation; type: in vivo, Glycine max, (L.) Merr. cv Williams; details: postemergence
Method: as §4, §5, §1

[3] = system: IPOHE (Morningglory, Ivyleaf); assay: Postemergence herbicidal evaluation; type: in vivo, Ipomoea hederacea; details: postemergence
Method: as §4, §5, §1

CASOB (Sicklepod) = assay: Preemergence herbicidal evaluation; type: in vivo, Cassia obtusifolia; details: rated 4-5 weeks after treatment
Text: as §1, §2, §3

GALAP (Galium) = assay: Preemergence herbicidal evaluation; type: in vivo, Galium aparine; details: rated 4-5 weeks after treatment
Text: as §1, §2, §3

[4] = system: CHEAL (Lambsquarters, Common); assay: Preemergence herbicidal evaluation; type: in vivo, Chenopodium album; details: rated 4-5 weeks after treatment
Text: as §1, §2, §3

ZEAMX (Corn, Field) = assay: Preemergence herbicidal evaluation; type: in vivo, Zea mays; details: rated 4-5 weeks after treatment
Text: as §1, §2, §3

SETVI (Foxtail, Green) = assay: Postemergence herbicidal evaluation; type: in vivo, Setaria viridis; details: postemergence
Method: as §4, §5, §1

ECHCG (Barnyardgrass) [5] = assay: Preemergence herbicidal evaluation; type: in vivo, Echinochloa crus-galli; details: rated 4-5 weeks after treatment
Text: as §1, §2, §3

AMBEL (Ragweed, Common) = assay: Postemergence herbicidal evaluation; type: in vivo, Ambrosia artemisifolia; details: postemergence
Method: as §4, §5, §1

ECHCG (Barnyardgrass) [6] = assay: Postemergence herbicidal evaluation; type: in vivo, Echinochloa crus-galli; details: postemergence
Method: as §4, §5, §1

[7] = system: TRZAWR (Wheat, Winter, cv Riband); assay: Postemergence herbicidal evaluation; type: in vivo, Triticum aestivum; details: postemergence
Method: as §4, §5, §1

Structure (SMILES): CC(C)OC(=O)CN1C(=O)CSC1=Nc1cc(-n2c(=O)cc(C(F)(F)F)n(C)c2=O)c(F)cc1Cl [Compound 110]
- Preemergence herbicidal rating IPOHE ([1]; rate 0.0156 kg/ha): 3.5
- Preemergence herbicidal rating IPOHE ([1]; rate 0.0313 kg/ha): 4.5
- Preemergence herbicidal rating IPOHE ([1]; rate 0.0625 kg/ha): 5.5
- Preemergence herbicidal rating IPOHE ([1]; rate 0.1250 kg/ha): 9.0
- Preemergence herbicidal rating IPOHE ([1]; rate 0.2500 kg/ha): 9.0
- Preemergence herbicidal rating IPOHE ([1]; rate 0.5000 kg/ha): 9.0
- Herbicidal rating ABUTH (ABUTH (Velvetleaf); rate 0.0158 kg/ha): 9.0
- Herbicidal rating ABUTH (ABUTH (Velvetleaf); rate 0.0315 kg/ha): 9.0
- Herbicidal rating ABUTH (ABUTH (Velvetleaf); rate 0.0630 kg/ha): 9.0
- Herbicidal rating GLXMAW ([2]; rate 0.0158 kg/ha): 5.0
- Herbicidal rating GLXMAW ([2]; rate 0.0315 kg/ha): 6.5
- Herbicidal rating GLXMAW ([2]; rate 0.0630 kg/ha): 6.5
- Herbicidal rating IPOHE ([3]; rate 0.0158 kg/ha): 9.0
- Herbicidal rating IPOHE ([3]; rate 0.0315 kg/ha): 9.0
- Herbicidal rating IPOHE ([3]; rate 0.0630 kg/ha): 9.0
- Preemergence herbicidal rating CASOB (CASOB (Sicklepod); rate 0.0156 kg/ha): 0.0
- Preemergence herbicidal rating CASOB (CASOB (Sicklepod); rate 0.0313 kg/ha): 0.0
- Preemergence herbicidal rating CASOB (CASOB (Sicklepod); rate 0.0625 kg/ha): 0.0
- Preemergence herbicidal rating CASOB (CASOB (Sicklepod); rate 0.1250 kg/ha): 2.0
- Preemergence herbicidal rating CASOB (CASOB (Sicklepod); rate 0.2500 kg/ha): 5.0
- Preemergence herbicidal rating CASOB (CASOB (Sicklepod); rate 0.5000 kg/ha): 9.0
- Preemergence herbicidal rating GALAP (GALAP (Galium); rate 0.0156 kg/ha): 0.0
- Preemergence herbicidal rating GALAP (GALAP (Galium); rate 0.0313 kg/ha): 0.0
- Preemergence herbicidal rating GALAP (GALAP (Galium); rate 0.0625 kg/ha): 0.0
- Preemergence herbicidal rating GALAP (GALAP (Galium); rate 0.1250 kg/ha): 0.0
- Preemergence herbicidal rating GALAP (GALAP (Galium); rate 0.2500 kg/ha): 2.0
- Preemergence herbicidal rating CHEAL ([4]; rate 0.0156 kg/ha): 8.0
- Preemergence herbicidal rating CHEAL ([4]; rate 0.0313 kg/ha): 9.0
- Preemergence herbicidal rating CHEAL ([4]; rate 0.0625 kg/ha): 9.0
- Preemergence herbicidal rating CHEAL ([4]; rate 0.1250 kg/ha): 9.0
- Preemergence herbicidal rating CHEAL ([4]; rate 0.2500 kg/ha): 9.0
- Preemergence herbicidal rating CHEAL ([4]; rate 0.5000 kg/ha): 9.0
- Preemergence herbicidal rating ZEAMX (ZEAMX (Corn, Field); rate 0.0156 kg/ha): 0.0
- Preemergence herbicidal rating ZEAMX (ZEAMX (Corn, Field); rate 0.0313 kg/ha): 0.5
- Preemergence herbicidal rating ZEAMX (ZEAMX (Corn, Field); rate 0.0625 kg/ha): 1.0
- Preemergence herbicidal rating ZEAMX (ZEAMX (Corn, Field); rate 0.1250 kg/ha): 2.5
- Preemergence herbicidal rating ZEAMX (ZEAMX (Corn, Field); rate 0.2500 kg/ha): 3.5
- Preemergence herbicidal rating ZEAMX (ZEAMX (Corn, Field); rate 0.5000 kg/ha): 4.0
- Herbicidal rating SETVI (SETVI (Foxtail, Green); rate 0.0158 kg/ha): 1.0
- Herbicidal rating SETVI (SETVI (Foxtail, Green); rate 0.0315 kg/ha): 9.0
- Herbicidal rating SETVI (SETVI (Foxtail, Green); rate 0.0630 kg/ha): 9.0
- Preemergence herbicidal rating ECHCG (ECHCG (Barnyardgrass) [5]; rate 0.0156 kg/ha): 0.0
- Preemergence herbicidal rating ECHCG (ECHCG (Barnyardgrass) [5]; rate 0.0313 kg/ha): 0.0
- Preemergence herbicidal rating ECHCG (ECHCG (Barnyardgrass) [5]; rate 0.0625 kg/ha): 0.5
- Preemergence herbicidal rating ECHCG (ECHCG (Barnyardgrass) [5]; rate 0.1250 kg/ha): 2.0
- Preemergence herbicidal rating ECHCG (ECHCG (Barnyardgrass) [5]; rate 0.2500 kg/ha): 3.0
- Preemergence herbicidal rating ECHCG (ECHCG (Barnyardgrass) [5]; rate 0.5000 kg/ha): 4.0
- Herbicidal rating AMBEL (AMBEL (Ragweed, Common); rate 0.0158 kg/ha): 5.0
- Herbicidal rating AMBEL (AMBEL (Ragweed, Common); rate 0.0315 kg/ha): 4.0
- Herbicidal rating AMBEL (AMBEL (Ragweed, Common); rate 0.0630 kg/ha): 9.0
- Herbicidal rating ECHCG (ECHCG (Barnyardgrass) [6]; rate 0.0158 kg/ha): 1.0
- Herbicidal rating ECHCG (ECHCG (Barnyardgrass) [6]; rate 0.0315 kg/ha): 5.0
- Herbicidal rating ECHCG (ECHCG (Barnyardgrass) [6]; rate 0.0630 kg/ha): 4.0
- Herbicidal rating TRZAWR ([7]; rate 0.0158 kg/ha): 2.5
- Herbicidal rating TRZAWR ([7]; rate 0.0315 kg/ha): 3.5
- Herbicidal rating TRZAWR ([7]; rate 0.0630 kg/ha): 4.0

Structure (SMILES): Cn1c(C(F)(F)F)cc(=O)n(-c2cc(N=C3SCC(=O)N3CC(=O)OC3CCCC3)c(Cl)cc2F)c1=O [Compound 120, Cyclopentyl 2-{{2-chloro-5-[3,6-dihydro-3-methyl-2,6-dioxo-4-(trifluoromethyl)-1(2H)-pyrimidinyl]-4-fluorophenyl}imino}-4-oxo-3-thiazolidineacetate]
- Preemergence herbicidal rating IPOHE ([1]; rate 0.0156 kg/ha): 0.0
- Preemergence herbicidal rating IPOHE ([1]; rate 0.0313 kg/ha): 0.0
- Preemergence herbicidal rating IPOHE ([1]; rate 0.0625 kg/ha): 0.0
- Preemergence herbicidal rating IPOHE ([1]; rate 0.1250 kg/ha): 4.0
- Preemergence herbicidal rating IPOHE ([1]; rate 0.2500 kg/ha): 9.0
- Herbicidal rating ABUTH (ABUTH (Velvetleaf); rate 0.0156 kg/ha): 9.0
- Herbicidal rating ABUTH (ABUTH (Velvetleaf); rate 0.0313 kg/ha): 9.0
- Herbicidal rating ABUTH (ABUTH (Velvetleaf); rate 0.0625 kg/ha): 9.0
- Herbicidal rating GLXMAW ([2]; rate 0.0156 kg/ha): 7.5
- Herbicidal rating GLXMAW ([2]; rate 0.0313 kg/ha): 9.0
- Herbicidal rating GLXMAW ([2]; rate 0.0625 kg/ha): 9.0
- Herbicidal rating IPOHE ([3]; rate 0.0156 kg/ha): 9.0
- Herbicidal rating IPOHE ([3]; rate 0.0313 kg/ha): 9.0
- Herbicidal rating IPOHE ([3]; rate 0.0625 kg/ha): 9.0
- Preemergence herbicidal rating CASOB (CASOB (Sicklepod); rate 0.0156 kg/ha): 0.0
- Preemergence herbicidal rating CASOB (CASOB (Sicklepod); rate 0.0313 kg/ha): 0.0
- Preemergence herbicidal rating CASOB (CASOB (Sicklepod); rate 0.0625 kg/ha): 3.0
- Preemergence herbicidal rating CASOB (CASOB (Sicklepod); rate 0.1250 kg/ha): 4.0
- Preemergence herbicidal rating CASOB (CASOB (Sicklepod); rate 0.2500 kg/ha): 4.0
- Preemergence herbicidal rating GALAP (GALAP (Galium); rate 0.0156 kg/ha): 0.0
- Preemergence herbicidal rating GALAP (GALAP (Galium); rate 0.0313 kg/ha): 0.0
- Preemergence herbicidal rating GALAP (GALAP (Galium); rate 0.0625 kg/ha): 0.0
- Preemergence herbicidal rating GALAP (GALAP (Galium); rate 0.1250 kg/ha): 0.0
- Preemergence herbicidal rating GALAP (GALAP (Galium); rate 0.2500 kg/ha): 0.0
- Preemergence herbicidal rating CHEAL ([4]; rate 0.0156 kg/ha): 9.0
- Preemergence herbicidal rating CHEAL ([4]; rate 0.0313 kg/ha): 9.0
- Preemergence herbicidal rating CHEAL ([4]; rate 0.0625 kg/ha): 9.0
- Preemergence herbicidal rating CHEAL ([4]; rate 0.1250 kg/ha): 9.0
- Preemergence herbicidal rating CHEAL ([4]; rate 0.2500 kg/ha): 9.0
- Preemergence herbicidal rating ZEAMX (ZEAMX (Corn, Field); rate 0.0156 kg/ha): 0.0
- Preemergence herbicidal rating ZEAMX (ZEAMX (Corn, Field); rate 0.0313 kg/ha): 0.0
- Preemergence herbicidal rating ZEAMX (ZEAMX (Corn, Field); rate 0.0625 kg/ha): 0.0
- Preemergence herbicidal rating ZEAMX (ZEAMX (Corn, Field); rate 0.1250 kg/ha): 0.0
- Preemergence herbicidal rating ZEAMX (ZEAMX (Corn, Field); rate 0.2500 kg/ha): 3.0
- Herbicidal rating SETVI (SETVI (Foxtail, Green); rate 0.0156 kg/ha): 4.0
- Herbicidal rating SETVI (SETVI (Foxtail, Green); rate 0.0313 kg/ha): 9.0
- Herbicidal rating SETVI (SETVI (Foxtail, Green); rate 0.0625 kg/ha): 9.0
- Preemergence herbicidal rating ECHCG (ECHCG (Barnyardgrass) [5]; rate 0.0156 kg/ha): 0.0
- Preemergence herbicidal rating ECHCG (ECHCG (Barnyardgrass) [5]; rate 0.0313 kg/ha): 0.0
- Preemergence herbicidal rating ECHCG (ECHCG (Barnyardgrass) [5]; rate 0.0625 kg/ha): 0.0
- Preemergence herbicidal rating ECHCG (ECHCG (Barnyardgrass) [5]; rate 0.1250 kg/ha): 0.0
- Preemergence herbicidal rating ECHCG (ECHCG (Barnyardgrass) [5]; rate 0.2500 kg/ha): 2.0
- Herbicidal rating AMBEL (AMBEL (Ragweed, Common); rate 0.0156 kg/ha): 9.0
- Herbicidal rating AMBEL (AMBEL (Ragweed, Common); rate 0.0313 kg/ha): 9.0
- Herbicidal rating AMBEL (AMBEL (Ragweed, Common); rate 0.0625 kg/ha): 9.0
- Herbicidal rating ECHCG (ECHCG (Barnyardgrass) [6]; rate 0.0156 kg/ha): 1.0
- Herbicidal rating ECHCG (ECHCG (Barnyardgrass) [6]; rate 0.0313 kg/ha): 2.0
- Herbicidal rating ECHCG (ECHCG (Barnyardgrass) [6]; rate 0.0625 kg/ha): 5.0
- Herbicidal rating TRZAWR ([7]; rate 0.0156 kg/ha): 3.5
- Herbicidal rating TRZAWR ([7]; rate 0.0313 kg/ha): 4.5
- Herbicidal rating TRZAWR ([7]; rate 0.0625 kg/ha): 5.0
